Data on one substance can be found in patent US20110212116A1, “IMMUNOGENIC PEPTIDES AND USES THEREOF” (Cancer Research Technology Limited, priority 2008, published 2011).

For one assay, the system named is AML patient CD8+ T cells. In words: Pentamer staining, AML patient CD3+ T cells stimulated with peptide loaded T2 cells. The conditions noted are these: for P14 pentamer positive cells of the CD8+ cells: after P14 peptide stimulation. The class given is cell-based, human. How it is done: (§1) Assessment of peptide specific T cells was carried out by staining 10^6 effector cells with 10 μl of PE labeled, HLA-A*0201 pentamers (custom made by Proimmune) for 10 minutes, at room temperature, in the dark. Cells were then washed and co-stained with CD8-FITC for 20 minutes at room temperature. The lymphocyte gate was selected according to FSSCH/SSCH and 50,000 events acquired. Staining with control pentamers was carried out for each sample.
(§2) After 24 hours in maturation cytokines, DCs were incubated with peptide (50 μg/ml) for 4 hours. PBMCs or CD3^+ cells from healthy donors or patients with solid tumours were seeded into a 12-well plate, in X-VIVO 15 at a density of 2×10^6/ml. Peptide pulsed, monocyte derived DCs were washed and prepared at 2×10^5/ml. PBMC cultures received peptide pulsed DCs at a stimulator:effector ratio of […], or in the case of unstimulated controls, medium only. IL-7 was added to cultures at a final concentration of 10 U/ml on day 3. Cultures were restimulated by addition of peptide pulsed DCs on, day 7, and in some cases day 14, together with IL-7 and IL-2 (both at 10 U/ml). 200 μl of culture supernatants were collected at various intervals throughout the culture period and replaced with fresh medium. In the case of AML patient cultures, T2 cells were pulsed with peptide and used as stimulators in the same way as autologous DCs described above. Culture supernatants were analysed for IFNγ content by ELISA. After the 2-3 week culture period, stimulated effector cells were washed and analysed by pentamer staining, intracellular cytokine staining or ELISPOT assays.
(§3) The T2 line was first examined for immune stimulatory molecules by FACS analysis. […] T2 cells were cultured in serum free conditions to reduce the non-human antigens present in the FCS. T2 cells were incubated with peptide for 4 hours, washed and irradiated and seeded in 96 well plates. Purified T cells (Miltenyi) from patients were added and IFNγ secretion or the expansion of CD8^+ epitope specific T cells measured using pentamers.
Prior to each restimulation, cells were resuspended and aliquots taken for pentamer staining.

Assay [1] relates to healthy donor CD8+ T cells. As to the kind of experiment: Pentamer staining, healthy donor CD3+ cells stimulated with peptide pulsed DCs. It is filed as cell-based, human. The settings on record: two of four normal donors, after four stimulations. How it is done:
as §1
as §2, with “200 μl of culture supernatants were collected at various intervals throughout the culture period and replaced with fresh medium. In the case of AML patient cultures, T2 cells were pulsed with peptide and used as stimulators in the same way as autologous DCs described above.” left out, “assays. […]” for “assays.”

The next assay concerns HHD mice. In words: Mouse IFNγ-ELISpot after pDOM-epitope DNA vaccination. The settings on record: mouse, in vivo.
The test system of a further assay is healthy donor T cells. In words: IFNγ ELISA of healthy donor T cells stimulated with peptide loaded autologous DCs. It is filed as cell-based, human. How it is done: PBMCs were prepared from healthy donor buffy coats as described above. Monocytes were obtained from newly sourced buffy coats, or cells thawed at 10^6/ml in warm X-VIVO medium, 1% human AB serum and plated in 90 mm TC dishes. Plates were incubated at 37° C. for at least 4 hours and non adherent cells removed by gently washing with media or HBSS or CD14^+ cells were positively selected as described. The remaining T cell enriched cells were cryopreserved for use as effectors in later assays. The CD14^+ fraction/adherent cells were cultured in IL-4 (1000 IU/ml) and GM-CSF (800 U/ml) for 5 days to induce differentiation to a dendritic cell (DC) phenotype. On day 3 fresh IL-4 and GM-CSF were added. On day 5 TNFα (10 ng/ml), IL-6 (1000 U/ml) and IL-1β (10 ng/ml) all from R&D systems UK and PGE2 (1 μg/ml) (from Sigma, UK) were added to plates. On day 6 DCs were harvested from plates and washed with HBSS to remove residual cytokines before use in immunological experiments. Analysis of DC phenotype was carried out by flow cytometry.
IL-2 and IFNγ levels were determined with Duo set ELISA Development System (R&D Systems), according to the manufacturer's instructions. Supernatants were collected at various time points (days 3, 7, 10 and 14) in order to detect peak cytokine levels.
as §2

The next assay deals with patient T cells. In words: IFNγ secretion by patient T cells following in vitro peptide stimulation. The class given is cell-based, human. How it is done: FIG. 4. IFNγ secretion by patient T cells following in vitro stimulations. (A) IFNγ levels in peptide stimulated cultures from AML patients (same as shown in FIGS. 3 B and E) as measured by ELISpot assays. […] Graphs show IFNγ levels at day 10 (y-axis).
as §2, §3

Entries after “also recorded” stand apart in the source; their conditions may differ.

Procedure for HHD mice: HHD mice at 6 to 10 weeks of age were injected intramuscularly (i.m.) into both quadriceps with a total of 50 μg DNA in saline solution on day 0. Unless stated otherwise mice were boosted with the same DNA vaccine delivered with in vivo electroporation on day 28 as previously described^5.
Vaccine-specific IFNγ secretion by lymphocytes from individual mice was assessed ex vivo (BD ELISpot Set, BD PharMingen, San Diego, Calif.) on day 14 or 36, as described previously with some modifications^11. Briefly, viable lymphocytes were selected from splenocyte preparations by density centrifugation. […] Data are expressed as the frequency of spot-forming cells (SFCs) per million lymphocytes. For analysis of peptide-specific T-cell sensitivity, splenic lymphocytes from immunized mice were incubated with a range of PASD1 peptide concentrations and the frequency of specific cells assessed by ELISpot analysis as described. The number of SFC/million cells at the peptide concentration inducing the greatest response was assigned a value of 100%. For each peptide concentration tested the % maximal response was then calculated by the formula: (experimental SFCs per million cells/maximal SFCs per million cells)×100% for each individual animal.

With “P14: modified PASD1 peptide, SEQ ID NO 21, derivative of wild type peptide P8 (RLWQELSDI; Synthetic sequence amino acid sequence p14)”, the Pentamer positive cells result in the assay with AML patient CD8+ T cells (AML Patient 3 (remission) and Patient 4 (non remission), after three stimulations) was “no pentamer positive cells were detected”. In addition, the “P14 pentamer positive cells of the CD8+ cells” value turned out to be 0.5% with AML patient CD8+ T cells (AML Patient I) and 0.09% in the assay on AML patient CD8+ T cells (AML Patient II). Besides, in the assay on AML patient CD8+ T cells (AML patients, absence of peptide stimulation), the “Pentamer positive cells, frequency of the CD8+ T cells” value is given as “not detectable above background levels; also recorded: undetectable”. In addition, the “Pentamer positive cells, frequency of the CD8+ cells” value in the assay with AML patient CD8+ T cells (AML patients, after two rounds of ex vivo stimulation) was determined as 0.02%. Also, the “Pentamer positive T cells” value in assay [1] is reported as “small population”. Besides, the “IFNγ secretion (ELISpot) against the peptide of the immunisation” value in the assay on HHD mice is listed as “leads to an IFNγ response”. Moreover, the “Secretion of IFNγ in cultures of CD4+ depleted effector cells” value in the assay on healthy donor T cells (CD4+ depleted effector cells) is on record as “almost completely abolished”. The “IFNγ production from normal donor T cells” value in the assay on healthy donor T cells (modified peptides P11-P16, six normal donors) is listed as “highest levels”. In addition, the “IFNγ secretion by expanded P14-specific T cell populations” value in the assay on patient T cells (AML Patient I and II) is recorded as “IFNγ was secreted”. Further, the “Specific IFNγ secretion by ELISpot” value in the assay on patient T cells (colon cancer patient T cells stimulated with peptide) is recorded as “detectable”.
